Laboratory results as given in patent US7772425B2, “Vitamin D receptor modulators” (Eli Lilly and Company, priority 2002, dated 2010).
“And” between values parts separate entries of the source, which are not always exact repeats. Identical values can stand only once. Like-named read-outs stand apart in the source and are kept apart here.

Key:
[1] = system: rat osteocalcin promoter; assay: OCN (osteocalcin) promoter assay in RG-15 (ROS 17/2.8) cells; format: cell-based; conditions: 48 hr treatment, luciferase
Experimental: 3. The OCN (Osteocalcin) Promoter Assay
The OCN Promoter Assay is an indicator and marker for osteoporosis. […] Preferred assay results are less than 50 nM.
(3) Materials and Method for The OCN Promoter Assay:
The activation of osteocalcin by VDR ligands was evaluated in a rat osteoblast-like cell line RG-15 (ROS 17/2.8) stably expressing rat osteocalcin promoter fused with luciferase reporter gene. […] Confluent RG-15 cells maintained in DMEM/F-12 medium (3:1) containing 5% FBS, 300 μg/ml G418 and at 37° C. under 5% CO2/95% air atmosphere were trypsinized (0.25% trypsin) and plated into white opaque 96-well cell culture plates (25000 cells/well). After 24 hr, cells (in DMEM/F-12 medium+2% FBS) were treated with various concentrations of compounds, dissolved in DMSO. The final DMSO concentration remained at 0.01% (v/v). After 48 hr treatment, the medium was removed, cells were lysed with 50 μl of lysis buffer (From Luciferase reporter assay system, Roche Diagnostics, Indianapolis, Ind.) and assayed for luciferase activity using the Luciferase Reporter Gene Assay kit from Boehringer Mannheim as per manufacturer's specifications.

[2] = system: KERtr cells (Human skin keratinocyte); assay: Keratinocyte proliferation assay; format: cell-based; conditions: BrdU incorporation, read-out: Kera. Prolif. IC50
Experimental: 5. The Keratinocyte Proliferation Assay
This Assay is indicative for the treatment of psoriasis.
(5) The Keratinocyte Proliferation Assay:
KERtr cells (Human skin keratinocyte transformed with a retrovirus vector, obtained from ATCC) were plated in 96-well flat-bottomed plates (3000 cells/well) in 100 μl keratinocyte serum free medium supplemented with bovine pituitary extract in the absence of EGF (Life Technologies, Rockville, Md.) and incubated at 37° C. for two days. The cells were treated with various concentrations of VDR ligands (ten-fold serial dilution from 10,000 nM to 0.1 nM in triplicate), dissolved in 100 μl keratinocyte serum free medium supplemented with bovine pituitary extract in the absence of EGF and incubated at 37° C. for 72 hr. BrdU (5-bromo-2′-deoxyuridine) incorporation was analyzed as a measure of DNA replication (Cell proliferation ELISA kit, Roche Diagnostics, Indianapolis, Ind.) and absorbance was measured at 405 nm. Potency values (IC50) values were determined as the concentration (nM) of compound that elicited a half-maximal response.

[3] = system: female DBF mice; assay: Mouse hypercalcemia assay; format: in vivo; conditions: orally via gavage for 6 days; serum ionized calcium 6 hours after last dosing
Excerpt: 4. The Mouse Hypercalcemia Assay
(4) Materials and Method for The Mouse Hypercalcemia Assay: […]

[4] = system: IL-10; assay: human IL-10 induction assay in PBMCs; format: cell-based; conditions: TPA/PHA treated human PBMCs, IL-10 immunoassay of supernatant
Excerpt: The evaluation of the novel compounds of the invention for psoriasis is done using the Keratinocyte Proliferation Assay in combination with other assays that measure inhibition of IL-2 production and stimulation of IL-10 production in peripheral blood mononuclear cells (PBMCs).
6. The IL-10 Induction Assay
This is an in vitro efficacy assay for psoriasis, abscess and adhesion. Psoriasis involves both keratinocytes and immune cells. IL-10 is a unique cytokine because it is anti-inflammatory and immunosuppressive. This assay tells us whether a VDRM is able to function as an agonist in PBMCs (primary blood mononuclear cells) or not. A lower EC50 value is desirable in this assay since a compound with a lower EC50 value will be a better agonist in PBMCs.
(6) Materials and Method for human IL-10 Induction Assay:
Isolation of peripheral blood mononuclear cells (PBMCs):
• A. Collect 50 ml of human blood and dilute with media, RPMI-1640. • B. Prepare sterile tubes with ficol. • C. Add diluted blood to tubes. • D. Centrifuge. • E. Discard the top layer and collect the cells from middle layer. • F. Divide all cells into four tubes and add media. • G. Centrifuge. • H. Aspirate off media and resuspend. • I. Collect all cells • J. Centrifuge. at 1200 rpm for 10 minutes. • K. Resuspend in RPMI-1640 with 2% FBS and count cells Stimulation of PBMC: • L. Prepare TPA in DMSO. • M. Dissolve PHA in water. • N. Plate TPA/PHA treated PBMCs in well plates. • O. Incubate. Treatment: • P. Prepare all compound dilutions in plain RPMI-1640 media. • Q. Add diluted compound. • R. Incubate. Sample Collection and assay: • S. Remove all the cells by centrifugation and assay the supernatant for IL-10 by immunoassay. • 1) T. Perform IL-10 assay using anti-human IL-10 antibody coated beads, as described by the manufacturer (Linco Research Inc., St. Charles, Mo.).

[5] = Homo sapiens, Keratinocyte, 72 h

Row | Compound | EC50 [1] | IC50 ([2]; 72 hr) | Mouse Hypercal [3] | IC50 [2, 5] | IC50 [4] | IC50 ([4]; Homo sapiens, PBMC) | EC50 ([1]; Rattus norvegicus, 48 h)
1 | CCC(CC)(c1ccc(OC(C)C(O)C(C)(C)C)c(C)c1)c1ccc(C(=O)OC)c(C)c1 (single isomer, unassigned) [Ex. 10Db, 3′-[4-(2-hydroxy-1,3,3-trimethylbutoxy)-3-methylphenyl]-3′-[4-methoxycarbonyl-3-methylphenyl]pentane] | 0.015 µM | 1 µM |  |  |  |  | 
2 | CCC(CC)(c1ccc(OCC(O)C(C)(C)C)c(C)c1)c1ccc(C(=O)NCCS(C)(=O)=O)c(C)c1 (single isomer, unassigned) [Ex. 15A, 4-{1-ethyl-1-[4-(2-hydroxy-3,3-dimethylbutoxy)-3-methylphenyl]propyl}-N-(2-methanesulfonylethyl)-2-methylbenzamide] | 0.035 µM and 0.043 µM |  | 1500 µg/kg/day | 0.117 µM |  |  | 
3 | CCC(CC)(c1ccc(OCC(O)C(C)(C)C)c(C)c1)c1ccc(C(=O)N(C)CC(=O)O)c(C)c1 (single isomer, unassigned) [Ex. 18, [(4-{1-ethyl-1-[4-(2-hydroxy-3,3-dimethyl-butoxy)-3-methyl-phenyl]-propyl}-2-methyl-benzoyl)-methyl-amino]-acetic acid] |  | 1 µM | 1000 µg/kg/day |  | 0.047 µM |  | 
4 | CCC(CC)(c1ccc(OCC(O)C(C)(C)C)c(C)c1)c1ccc(C(=O)NC(C)(C)C(=O)O)c(C)c1 (single isomer, unassigned) [Ex. 20B, 2-(4-{1-Ethyl-1-[4-(2-hydroxy-3,3-dimethyl-butoxy)-3-methyl-phenyl]-propyl}-2-methyl-benzoylamino)-2-methyl-propionic acid] |  |  | 300 µg/kg/day | 0.003 µM |  | 0.004 µM | 
5 | CCC(CC)(c1ccc(C(=O)O)cc1)c1ccc(OCC(O)C(C)(C)C)c(C)c1 (single isomer, unassigned) [Ex. 22, 4-{1-Ethyl-1-[4-(2-hydroxy-3,3-dimethylbutoxy)-3-methylphenyl]-propyl}benzoic acid] |  | 0.004 µM | 1000 µg/kg/day |  |  | 0.039 µM | 
6 | CCC(CC)(c1ccc(C(=O)O)cc1)c1ccc(OCC(O)C(C)(C)C)c(C)c1 (single isomer, unassigned) [Ex. 23, 4-{1-Ethyl-1-[4-(2-hydroxy-3,3-dimethylbutoxy)-3-methylphenyl]-propyl}benzoic acid] |  | 0.04 µM | 3000 µg/kg/day |  | 0.027 µM |  | 
7 | CCC(CC)(c1ccc(OC(C)C(O)C(C)(C)C)c(C)c1)c1ccc(C(=O)Nc2nnn[nH]2)c(C)c1 (single isomer, unassigned) [Ex. 29, 3′-[4-(2-hydroxy-1,3,3-trimethylbutoxy)-3-methylphenyl]-3′-[4-(tetrazol-5-ylaminocarbonyl)-3-methylphenyl]pentane] |  | 0.049 µM | 3000 µg/kg/day |  |  | 0.153 µM | 
8 | CCC(CC)(c1ccc(OC(C)C(O)C(C)(C)C)c(C)c1)c1ccc(C(=O)Nc2nnn[nH]2)c(C)c1 (single isomer, unassigned) [Ex. 30, 3′-[4-(2-hydroxy-1,3,3-trimethylbutoxy)-3-methylphenyl]-3′-[4-(tetrazol-5-ylaminocarbonyl)-3-methylphenyl]pentane] |  | 0.02 µM | 1000 µg/kg/day |  | 0.123 µM |  | 
9 | CCC(CC)(c1ccc(OC(C)C(O)C(C)(C)C)c(C)c1)c1ccc(C(=O)NCC(=O)O)c(C)c1 (single isomer, unassigned) [Ex. 32, 3′-[4-(2-hydroxy-1,3,3-trimethylbutoxy)-3-methylphenyl]-3′-[4-(carboxymethylaminocarbonyl)-3-methylphenyl]pentane] |  | 1 µM | 1000 µg/kg/day |  | 0.106 µM |  | 
10 | CCC(CC)(c1ccc(C(=O)O)cc1)c1ccc(OCC(O)C(C)(C)C)c(Cl)c1 (single isomer, unassigned) [Ex. 36, 3′-[3-chloro-4-(2-hydroxy-3,3-dimethylbutoxy)phenyl]-3′-[4-carboxyphenyl]pentane] |  | 0.139 µM | >300 µg/kg/day |  |  |  | 
11 | CCC(CC)(c1ccc(OC(C)C(O)C(C)(C)C)c(C)c1)c1ccc(C(=O)N(C)CC(=O)O)c(C)c1 (single isomer, unassigned) [Ex. 53, [(4-{1-Ethyl-1-[4-(2-hydroxy-1,3,3-trimethyl-butoxy)-3-methyl-phenyl]-propyl}-2-methyl-benzoyl)-methyl-amino]-acetic acid] |  | 0.224 µM | >3000 µg/kg/day |  |  |  | 
12 | CCC(CC)(c1ccc(OCC(=O)C(C)(C)C)c(C)c1)c1ccc(OCC(=O)C(C)(C)C)c(C)c1 [DD, reference compound] |  |  | 1000 µg/kg/day | 1.06 µM |  |  | 0.0311 µM
13 | CCC(CC)(c1ccc(OCC(O)C(C)(C)C)c(C)c1)c1ccc(C(=O)NS(C)(=O)=O)c(C)c1 (stereo not shown) [Ex. 5] |  |  | 100 µg/kg/day | 0.375 µM |  |  | 0.042 µM
14 | CCC(CC)(c1ccc(CCC(=O)N(C)C)c(C)c1)c1ccc(OCC(=O)C(C)(C)C)c(C)c1 [Ex. 7, 3′-[4-(2-oxo-3,3-dimethylbutoxy)-3-methylphenyl]-3′-[4-(2-dimethylcarbamoylethyl)-3-methylphenyl]pentane] |  |  |  | 0.018 µM |  |  | 0.004 µM
15 | CCC(CC)(c1ccc(CCC(=O)N(C)C)c(C)c1)c1ccc(OCC(O)C(C)(C)C)c(C)c1 (stereo not shown) [Ex. 8, 3′-[4-(2-hydroxy-3,3-dimethylbutoxy)-3-methylphenyl]-3′-[4-(2-dimethylcarbamoylethyl)-3-methylphenyl]pentane] |  |  | 100 µg/kg/day | 0.33 µM |  |  | 
16 | CCC(CC)(c1ccc(/C=C/C(=O)N(C)C)c(C)c1)c1ccc(OCC(O)C(C)(C)C)c(C)c1 (stereo not shown) [Ex. 9, 3′-[4-(2-hydroxy-3,3-dimethylbutoxy)-3-methylphenyl]-3′-[4-(2-dimethylcarbamoyl-t-ethylidene)-3-methylphenyl]pentane] | 0.006 µM |  |  | 0.985 µM |  |  | 0.007 µM
17 | CCC(CC)(c1ccc(OCC(=O)C(C)(C)C)c(C)c1)c1ccc(C(=O)O)c(C)c1 [Ex. 17, 4-{1-[4-(3,3-dimethyl-2-oxobutoxy)-3-methylphenyl]-1-ethylpropyl}-2-methylbenzoic acid] |  |  | >3000 µg/kg/day | 1 µM |  |  | 
18 | CCC(CC)(c1ccc(OC(C)C(O)C(C)(C)C)c(C)c1)c1ccc(C(=O)N[C@@H](C)C(=O)O)c(C)c1 (stereo partly shown) [Ex. 47, (L)-2-(4-{1-Ethyl-1-[4-(2-hydroxy-1,3,3-trimethyl-butoxy)-3-methyl-phenyl]-propyl}-2-methyl-benzoylamino)-propionic acid] |  |  | 3000 µg/kg/day | 1 µM |  |  | 
19 | CCC(CC)(c1ccc(OC(C)C(O)C(C)(C)C)c(C)c1)c1ccc(C(=O)N[C@H](C)C(=O)O)c(C)c1 (stereo partly shown) [Ex. 48, (D)-2-(4-{1-ethyl-1-[4-(2-hydroxy-1,3,3-trimethyl-butoxy)-3-methyl-phenyl]-propyl}-2-methyl-benzoylamino)-propionic acid] |  | 1 µM | <1000 µg/kg/day |  |  |  | 
